# Key:
# [1] = tested on: GFP cells and non-GFP cells; assay: Peristaltic pump experiment, Hoechst 33342 and PI double staining; format: cell-based; conditions: 100 μM RB, 4 hours, flow 1 ml/min, 473 nm at 80 mW, repeated passes
# Procedure: (1) Non-GFP and GFP cells were seeded in a 100 mm dish at a density of 1×10^7 cells. The next day, 100 μM of rose bengal (RB, santacruz, sc-203757) was applied thereto (in the subsequent procedure, light exposure was avoided as much as possible). A 4 mm ID×6 mm OD×1 mm wall sized transparent tube (Tygon, E-3603) was connected to an EP-1 Econo Pump (Bio-rad, 731-9001) in the dark room. A laser device was prepared.
# In four hours after the RB treatment, cells were harvested using trypsin, suspended in 20 ml of the culture medium, and placed in a 50 ml tube. Using a pump, the cell solution passed through the tubing at a flow rate of 1 ml/min and was irradiated with light of 473 nm at an intensity of 80 mW. This process was repeated 2, 4, 8, and 10 times. The resulting cells were seeded in a 1-ml 12-well plate. The next day, double staining was performed to compare the death amounts of non-GFP and GFP cells with each other.
# 0.5×10^7 of non-GFP cells and 0.5×10^7 of GFP cells were mixed with each other (total 1×10^7). […]
# PDT-treated cells were seeded onto a 12-well plate (1 mL per well) while controlling the PDT-treated cells to have a confluence of 50% or larger. […] The number of dead cells (PI-stained cells)/total number of cells*100 per cell image was calculated. Then, the cell death percentage was measured by calculating the average value between the calculated values of three cell images.
# [2] = Absorbance spectrum of the photosensitizer; format: physicochemical; conditions: FIG. 1A
# [3] = tested on: GFP+ A549, RFP+ A549 and YFP+ A549 cells; assay: In vitro PDT of GFP+, RFP+ and YFP+ cells with photosensitizer, MTT analysis; format: cell-based, human; conditions: 1 μM, blue laser light (488 nm), FIG. 20
# Procedure: Photo inducing death of GFP+, RFP+, and YFP+ cells via the photosensitizer was measured by MTT analysis. The specific experimental procedure is as follows.
# To investigate photo inducing death of GFP+ cells, RFP+ cells, and YFP+ cells via the photosensitizer, rose bengal, hematoporphyrin (Sigma-aldrich #5518) or 5-ALA (5-Aminolevulinic acid hydrochloric, Sigma-aldrich # A3785) was diluted with RPMI medium containing 10% FBS. 1 μM concentration of rose bengal, hematoporphyrin or 5-ALA was prepared. Further, GFP+ A549 cells, RFP+ A549 cells and YFP+ A549 cells selected from the 1-4 were pre-incubated at a density of 5×10^3 cells per well on 96-well, black, and clear bottom plates. A549 cells with pcDNA 3.1 vector injected thereto were cultured as control. Then, each of the photosensitizers as produced was applied or not applied to the preincubated cells in the preincubated cells which in turn were cultured for 4 hours. After 4 hours, the cells were washed three times with PBS buffer. Irradiation or non-irradiation of blue laser light (488 nm; radiation dose rate=2 J/cm^2) or yellow laser light (570 nm; radiation dose rate=2 J/cm^2) thereto was carried out for 5 seconds. After irradiation or non-irradiation, a fresh culture medium was added to the wells. The cells were cultured again for 24 hours. MTT analysis was then performed.
# [4] = tested on: GFP+ and GFP− NCI-H460 cells; assay: In vitro fluorescence intensity measurement after blue light irradiation (FRET); format: cell-based, human; conditions: RB 0, 5, 10, 50 uM, blue laser light 473 nm, FIG. 15
# Procedure: Fluorescent intensities of GFP− and GFP+ cells after blue light irradiation were measured in the presence or absence of RB. The specific experimental procedure is as follows.
# 1×10^6 cells of GFP− and GFP+ NCI-H460 cell lines as produced by the method described in the 1-1 were cultured in a 75 cm^2 cell culture dish containing RPMI-1640 medium supplemented with 10% FBS. After 12 hours, the culture medium of the cell line was replaced with RPMI-1640 medium without FBS. Then, RBs of various concentrations (0 uM, 5 uM, 10 uM, 50 uM) were added thereto. The culturing was done for 4 hours to accumulate RB in the cells. Then, the cells were obtained by centrifugation. Pellets of each cell group were suspended in 1 ml PBS. Then, the cell was irradiated with blue laser light (473 nm, radiation dose rate=80 mW/cm^2). The light-emission spectrum of each cell group was measured using a spectrofluorometer (JASCO Inc.). Measurements in each group were repeated 5 times. The FRET efficiency was calculated by the following equation: […]
# F(DA): GFP fluorescence intensity in the presence of RB, and
# F(D): GFP fluorescence intensity in the absence of RB.
smiles,measurement,setting,value
"O=C1OC2(c3cc(I)c(O)c(I)c3Oc3c2cc(I)c(O)c3I)c2c(Cl)c(Cl)c(Cl)c(Cl)c21 [RB, rose bengal]",death of GFP versus non-GFP cells in mixed culture,[1],only GFP cells were specifically killed
same,maximum absorbance,[2],549 nm
same,shoulder absorbance spectrum,[2],510 nm
same,"cell death effect, YFP+ versus GFP+ cell",[3],the cell death effect of the YFP+ cell is higher than that of GFP+ cell
same,emission intensity at 508 nm (emission peak of GFP),[4],decreases as the concentration of RB increases
